Measurements published in patent US20250386822A1, “Microcapsules controlling the diffusion of an active organic compound” (KAPSERA, priority 2022, published 2025).

What was measured:
[1] = Closed system: study of thermodynamic equilibrium, SPME-GC/MS in sealed 20 mL flasks (Example 2); assay type: physicochemical; conditions: closed 20 mL flask; European grapevine moth pheromone
Experimental: In order to establish the diffusion profiles of the samples at short times and to obtain initial information on any differences between the capsules, a study was carried out in a closed system. The experiment consists of introducing the samples into 20 mL hermetically sealed flasks and following the evolution of the quantity extracted by the SPME fibre over time, until equilibrium is reached. Measurements were initially taken over short periods (one measurement every 45 minutes, corresponding to the analysis time) and then, once the maximum concentration had been reached, measurements were taken at longer intervals to ensure that equilibrium had been reached (one measurement every 2.5 hours). These tests were carried out using the European grapevine moth pheromone, (E)-7-(Z)-9-dodecadienyl acetate (C14H24O2).

[2] = Pheromone diffusion duration by SPME pre-concentration and GCMS, closed temperature-controlled chamber (Example 1); assay type: physicochemical; conditions: pine processionary pheromone; paraffin oil core, 1% pheromone by weight
Excerpt: FIG. 1: This graph represents the abundance of the main compound of the non-encapsulated pheromone after preconcentration using the Solid Phase Micro-Extraction (SPME) technique, separation of the pheromone compounds by gas chromatography and detection by mass spectrometry (GCMS) in a closed temperature-controlled chamber. FIG. 2: This graph represents the abundance of the main compound of the encapsulated pheromone after preconcentration using the Solid Phase Micro-Extraction (SPME) technique, separation of the pheromone compounds by gas chromatography and detection by mass spectrometry (GCMS) in a closed temperature-controlled chamber. An analytical method was developed to detect the pheromone's main compound. The low quantities of analytes led to the choice of a pre-concentration method known as Solid Phase Micro-Extraction (SPME) and Gas Chromatography-Mass Spectrometry (GCMS).

Row | Compound | time until equilibrium is reached [1] [h] | duration of the pheromone's diffusion [2]
1 | CC/C=C\C=C\CCCCCCOC(C)=O [Example 2 non-encapsulated pheromone, (E)-7-(Z)-9-dodecadienyl acetate] | > 50 | 
2 | CC/C=C\C#CCCCCCCCCCCOC(C)=O [Example 1 non-encapsulated pheromone, Z-13-hexadecen-11-yn-1-yl acetate] |  | less than 10 days
